From PubChem BioAssay (NCI)
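48-hour exposure; five concentrations; linearly interpolated endpoints. TGI marks complete inhibition of growth.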

Key:
Test in all cases: DTP human tumour cell line panel, 48 h
UO-31 renal = tested on: UO-31 renal
SK-MEL-28 melanoma = tested on: SK-MEL-28 melanoma
SF-295 CNS = tested on: SF-295 CNS
MDA-N = tested on: MDA-N
TK-10 renal = tested on: TK-10 renal
OVCAR-5 ovarian = tested on: OVCAR-5 ovarian
LOX IMVI melanoma = tested on: LOX IMVI melanoma
MOLT-4 leukemia = tested on: MOLT-4 leukemia
HS 578T breast = tested on: HS 578T breast
SW-620 colon = tested on: SW-620 colon
IGROV1 ovarian = tested on: IGROV1 ovarian
EKVX NSCLC = tested on: EKVX NSCLC
SF-268 CNS = tested on: SF-268 CNS
RPMI-8226 leukemia = tested on: RPMI-8226 leukemia
MDA-MB-435 = tested on: MDA-MB-435
NCI-H522 lung = tested on: NCI-H522 lung
K-562 leukemia = tested on: K-562 leukemia
A549 NSCLC = tested on: A549 NSCLC
UACC-257 melanoma = tested on: UACC-257 melanoma
SK-MEL-5 melanoma = tested on: SK-MEL-5 melanoma
MDA-MB-231 breast = tested on: MDA-MB-231 breast
SN12C renal = tested on: SN12C renal
KM12 colon = tested on: KM12 colon
HL-60(TB) leukemia = tested on: HL-60(TB) leukemia
ACHN renal = tested on: ACHN renal
SNB-19 CNS = tested on: SNB-19 CNS
HCC-2998 colon = tested on: HCC-2998 colon
NCI-H460 lung = tested on: NCI-H460 lung
SR leukemia = tested on: SR leukemia
SF-539 CNS = tested on: SF-539 CNS
COLO 205 colon = tested on: COLO 205 colon
DU-145 prostate = tested on: DU-145 prostate
HCT-116 colon = tested on: HCT-116 colon
OVCAR-3 ovarian = tested on: OVCAR-3 ovarian
U251 CNS = tested on: U251 CNS
T-47D breast = tested on: T-47D breast
NCI/ADR-RES ovarian = tested on: NCI/ADR-RES ovarian
CAKI-1 renal = tested on: CAKI-1 renal
NCI-H23 lung = tested on: NCI-H23 lung
RXF 393 renal = tested on: RXF 393 renal
OVCAR-8 ovarian = tested on: OVCAR-8 ovarian
UACC-62 melanoma = tested on: UACC-62 melanoma
SNB-75 CNS = tested on: SNB-75 CNS
NCI-H226 lung = tested on: NCI-H226 lung
MALME-3M melanoma = tested on: MALME-3M melanoma
786-0 renal = tested on: 786-0 renal
HOP-62 NSCLC = tested on: HOP-62 NSCLC
HCT-15 colon = tested on: HCT-15 colon
HT29 colon = tested on: HT29 colon
BT-549 breast = tested on: BT-549 breast
CCRF-CEM leukemia = tested on: CCRF-CEM leukemia
PC-3 prostate = tested on: PC-3 prostate
A498 renal = tested on: A498 renal
HOP-92 NSCLC = tested on: HOP-92 NSCLC
OVCAR-4 ovarian = tested on: OVCAR-4 ovarian
SK-MEL-2 melanoma = tested on: SK-MEL-2 melanoma
M14 melanoma = tested on: M14 melanoma
SK-OV-3 ovarian = tested on: SK-OV-3 ovarian
MCF7 breast = tested on: MCF7 breast

## O=C(O)c1ccc(Nc2nc3cc(C(F)(F)F)ccc3nc2-c2ccccc2)cc1
UO-31 renal
  TGI: 36.9 µM
SK-MEL-28 melanoma
  TGI: > 100 µM
SF-295 CNS
  TGI: 27.9 µM
MDA-N
  TGI: > 100 µM
TK-10 renal
  TGI: 39.3 µM
OVCAR-5 ovarian
  TGI: 97.7 µM
LOX IMVI melanoma
  TGI: 32.5 µM
MOLT-4 leukemia
  TGI: > 100 µM
HS 578T breast
  TGI: 49.4 µM
SW-620 colon
  TGI: 30.9 µM
IGROV1 ovarian
  TGI: 35.9 µM
EKVX NSCLC
  TGI: 92 µM
SF-268 CNS
  TGI: > 100 µM
RPMI-8226 leukemia
  TGI: 83.1 µM
MDA-MB-435
  TGI: > 100 µM
NCI-H522 lung
  TGI: 32.8 µM
K-562 leukemia
  TGI: 42.7 µM
A549 NSCLC
  TGI: 40.3 µM
UACC-257 melanoma
  TGI: > 100 µM
SK-MEL-5 melanoma
  TGI: > 100 µM
MDA-MB-231 breast
  TGI: > 100 µM
SN12C renal
  TGI: 97.6 µM
KM12 colon
  TGI: 35.3 µM
HL-60(TB) leukemia
  TGI: > 100 µM
ACHN renal
  TGI: > 100 µM
SNB-19 CNS
  TGI: > 100 µM
HCC-2998 colon
  TGI: 34.4 µM
NCI-H460 lung
  TGI: 75.7 µM
SR leukemia
  TGI: > 100 µM
SF-539 CNS
  TGI: 56.4 µM
COLO 205 colon
  TGI: 37.9 µM
DU-145 prostate
  TGI: 95.5 µM
HCT-116 colon
  TGI: 84.5 µM
OVCAR-3 ovarian
  TGI: 28.4 µM
U251 CNS
  TGI: 34.2 µM
T-47D breast
  TGI: 35.1 µM
NCI/ADR-RES ovarian
  TGI: 70.2 µM
CAKI-1 renal
  TGI: 50.4 µM
NCI-H23 lung
  TGI: > 100 µM
RXF 393 renal
  TGI: 81.5 µM
OVCAR-8 ovarian
  TGI: > 100 µM
UACC-62 melanoma
  TGI: 26.2 µM
SNB-75 CNS
  TGI: 63.9 µM
NCI-H226 lung
  TGI: 69.6 µM
MALME-3M melanoma
  TGI: > 100 µM
786-0 renal
  TGI: 35 µM
HOP-62 NSCLC
  TGI: 43.1 µM
HCT-15 colon
  TGI: 30.6 µM
HT29 colon
  TGI: 28.2 µM
BT-549 breast
  TGI: > 100 µM
CCRF-CEM leukemia
  TGI: > 100 µM
PC-3 prostate
  TGI: 40.6 µM

## CCOC(=O)N1[C@@H]2CCC[C@@H]2C(=O)[C@@H]2CCC[C@@H]21
SK-MEL-28 melanoma
  TGI: > 100 µM
MDA-N
  TGI: > 100 µM
A498 renal
  TGI: > 100 µM
OVCAR-5 ovarian
  TGI: > 100 µM
LOX IMVI melanoma
  TGI: > 100 µM
MOLT-4 leukemia
  TGI: > 100 µM
HS 578T breast
  TGI: > 100 µM
SW-620 colon
  TGI: > 100 µM
IGROV1 ovarian
  TGI: > 100 µM
HOP-92 NSCLC
  TGI: > 100 µM
SF-268 CNS
  TGI: > 100 µM
RPMI-8226 leukemia
  TGI: > 100 µM
MDA-MB-435
  TGI: > 100 µM
K-562 leukemia
  TGI: > 100 µM
A549 NSCLC
  TGI: > 100 µM
UACC-257 melanoma
  TGI: > 100 µM
OVCAR-4 ovarian
  TGI: > 100 µM
SK-MEL-5 melanoma
  TGI: > 100 µM
MDA-MB-231 breast
  TGI: > 100 µM
SN12C renal
  TGI: > 100 µM
KM12 colon
  TGI: > 100 µM
HL-60(TB) leukemia
  TGI: > 100 µM
ACHN renal
  TGI: > 100 µM
SNB-19 CNS
  TGI: > 100 µM
HCC-2998 colon
  TGI: > 100 µM
NCI-H460 lung
  TGI: > 100 µM
SR leukemia
  TGI: > 100 µM
COLO 205 colon
  TGI: > 100 µM
DU-145 prostate
  TGI: > 100 µM
HCT-116 colon
  TGI: > 100 µM
OVCAR-3 ovarian
  TGI: > 100 µM
U251 CNS
  TGI: > 100 µM
SK-MEL-2 melanoma
  TGI: > 100 µM
T-47D breast
  TGI: > 100 µM
NCI/ADR-RES ovarian
  TGI: > 100 µM
CAKI-1 renal
  TGI: > 100 µM
NCI-H23 lung
  TGI: > 100 µM
M14 melanoma
  TGI: > 100 µM
RXF 393 renal
  TGI: > 100 µM
OVCAR-8 ovarian
  TGI: > 100 µM
UACC-62 melanoma
  TGI: > 100 µM
SNB-75 CNS
  TGI: > 100 µM
NCI-H226 lung
  TGI: > 100 µM
786-0 renal
  TGI: > 100 µM
HOP-62 NSCLC
  TGI: > 100 µM
HCT-15 colon
  TGI: > 100 µM
HT29 colon
  TGI: > 100 µM
BT-549 breast
  TGI: > 100 µM
SK-OV-3 ovarian
  TGI: > 100 µM
CCRF-CEM leukemia
  TGI: > 100 µM
PC-3 prostate
  TGI: > 100 µM

## C[C@]12CC/C(=N\OCCN3CCCCC3)C=C1CCC1C2CC[C@@]2(C)C1CC[C@]2(C)O (stereo partly specified)
UO-31 renal
  TGI: 23.2 µM
SK-MEL-28 melanoma
  TGI: 30.4 µM
SF-295 CNS
  TGI: 14.3 µM
MDA-N
  TGI: 11.7 µM
A498 renal
  TGI: 15.4 µM
TK-10 renal
  TGI: 34 µM
OVCAR-5 ovarian
  TGI: 94.4 µM
MCF7 breast
  TGI: 71.7 µM
LOX IMVI melanoma
  TGI: 15.7 µM
MOLT-4 leukemia
  TGI: 6.84 µM
HS 578T breast
  TGI: 32.1 µM
SW-620 colon
  TGI: 62.8 µM
IGROV1 ovarian
  TGI: 35.5 µM
EKVX NSCLC
  TGI: 44.6 µM
HOP-92 NSCLC
  TGI: 26 µM
SF-268 CNS
  TGI: 31 µM
RPMI-8226 leukemia
  TGI: 31.5 µM
MDA-MB-435
  TGI: 6.71 µM
NCI-H522 lung
  TGI: 7.52 µM
K-562 leukemia
  TGI: 17.9 µM
A549 NSCLC
  TGI: 35 µM
UACC-257 melanoma
  TGI: 18.9 µM
OVCAR-4 ovarian
  TGI: 76 µM
SK-MEL-5 melanoma
  TGI: 32.4 µM
MDA-MB-231 breast
  TGI: 28.2 µM
SN12C renal
  TGI: 33.5 µM
KM12 colon
  TGI: 26.6 µM
ACHN renal
  TGI: 39.6 µM
SNB-19 CNS
  TGI: 30 µM
HCC-2998 colon
  TGI: 22.1 µM
NCI-H460 lung
  TGI: 17.5 µM
SF-539 CNS
  TGI: 22.5 µM
COLO 205 colon
  TGI: 20.9 µM
DU-145 prostate
  TGI: 44.8 µM
HCT-116 colon
  TGI: 21.3 µM
OVCAR-3 ovarian
  TGI: 42.8 µM
U251 CNS
  TGI: 26.6 µM
SK-MEL-2 melanoma
  TGI: 28.8 µM
T-47D breast
  TGI: 97.2 µM
NCI/ADR-RES ovarian
  TGI: 20.5 µM
CAKI-1 renal
  TGI: 23.7 µM
NCI-H23 lung
  TGI: 33.5 µM
M14 melanoma
  TGI: 37.7 µM
RXF 393 renal
  TGI: 56.5 µM
OVCAR-8 ovarian
  TGI: 27 µM
UACC-62 melanoma
  TGI: 24.8 µM
SNB-75 CNS
  TGI: 24.8 µM
NCI-H226 lung
  TGI: 14.2 µM
MALME-3M melanoma
  TGI: 23.2 µM
786-0 renal
  TGI: 17.3 µM
HOP-62 NSCLC
  TGI: 43.7 µM
HCT-15 colon
  TGI: 27.6 µM
HT29 colon
  TGI: 10.2 µM
BT-549 breast
  TGI: 33.5 µM
SK-OV-3 ovarian
  TGI: 35 µM
CCRF-CEM leukemia
  TGI: 11.3 µM
PC-3 prostate
  TGI: 49.5 µM

## CCN(CC)CCCC(C)Nc1cc(/C=C/c2ccc(Cl)cc2)nc2cc(N(C)C)ccc12 (stereo unspecified)
UO-31 renal
  TGI: 3.55 µM
SF-295 CNS
  TGI: 3.33 µM
MDA-N
  TGI: 3.01 µM
A498 renal
  TGI: 3.12 µM
TK-10 renal
  TGI: 3.54 µM
OVCAR-5 ovarian
  TGI: 3.37 µM
MCF7 breast
  TGI: 3.39 µM
MOLT-4 leukemia
  TGI: 3.01 µM
SW-620 colon
  TGI: 2.69 µM
EKVX NSCLC
  TGI: 3.34 µM
HOP-92 NSCLC
  TGI: 3.16 µM
MDA-MB-435
  TGI: 3.06 µM
SK-MEL-5 melanoma
  TGI: 4.34 µM
SN12C renal
  TGI: 3.25 µM
KM12 colon
  TGI: 3.26 µM
HL-60(TB) leukemia
  TGI: 3.54 µM
ACHN renal
  TGI: 4.42 µM
SNB-19 CNS
  TGI: 3.3 µM
HCC-2998 colon
  TGI: 3.57 µM
SR leukemia
  TGI: 2.85 µM
SF-539 CNS
  TGI: 4.65 µM
DU-145 prostate
  TGI: 3.21 µM
HCT-116 colon
  TGI: 2.49 µM
OVCAR-3 ovarian
  TGI: 3.49 µM
U251 CNS
  TGI: 3.19 µM
T-47D breast
  TGI: 3.55 µM
M14 melanoma
  TGI: 3.09 µM
RXF 393 renal
  TGI: 3.06 µM
OVCAR-8 ovarian
  TGI: 3.41 µM
UACC-62 melanoma
  TGI: 6.54 µM
NCI-H226 lung
  TGI: 11.6 µM
HOP-62 NSCLC
  TGI: 3.4 µM
HCT-15 colon
  TGI: 3.17 µM
HT29 colon
  TGI: 2.65 µM
BT-549 breast
  TGI: 3.01 µM
PC-3 prostate
  TGI: 2.78 µM
